Results from ChEMBL document CHEMBL1201862, “PubChem BioAssay data set” (2004).
Active and inactive are the calls of the source. Cut-off read from the data, not from the text of the source, for most assays here: actives have a measured EC50 and inactives only a lower limit.

Key:
[1] = Luminescence Cell-Based Dose Response HTS to Identify Activators of Luciferase Translation or Activity in H4 […] Cells. [Related pubchem assays: 1829 (Project Summary), 1814 (Primary HTS)]; assay type: functional
[2] = Luminescence Cell-Based Dose Confirmation HTS to Identify Activators of 5'UTR Stem-Loop Driven Alpha-Synuclein mRNA Translation in H4 Neuroglioblastoma Cells. [Related pubchem assays: 1829 (Project Summary), 1814 (Primary HTS)]; assay type: functional
H4 = test: Luminescence Cell-Based Dose Response HTS to Identify Activators of 5'UTR Stem-Loop Driven Prion Protein mRNA Translation in H4 Neuroglioblastoma Cells. [Related pubchem assays: 1829 (Project Summary), 1814 (Primary HTS)]; assay type: functional; conditions: Homo sapiens
Streptokinase A = biological target: T1, Streptokinase A (Streptococcus pyogenes serotype M1, UniProt P10520); test: viability-normalized secreted streptokinase activity reduction – plasminogen activation absorbance, OD405, dose response (AID 1914); assay type: functional, Streptococcus pyogenes M1 GAS;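 note: secreted streptokinase activity via plasminogen activation per viability signal from cell pellet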
T1 sequence (P10520 whole entry): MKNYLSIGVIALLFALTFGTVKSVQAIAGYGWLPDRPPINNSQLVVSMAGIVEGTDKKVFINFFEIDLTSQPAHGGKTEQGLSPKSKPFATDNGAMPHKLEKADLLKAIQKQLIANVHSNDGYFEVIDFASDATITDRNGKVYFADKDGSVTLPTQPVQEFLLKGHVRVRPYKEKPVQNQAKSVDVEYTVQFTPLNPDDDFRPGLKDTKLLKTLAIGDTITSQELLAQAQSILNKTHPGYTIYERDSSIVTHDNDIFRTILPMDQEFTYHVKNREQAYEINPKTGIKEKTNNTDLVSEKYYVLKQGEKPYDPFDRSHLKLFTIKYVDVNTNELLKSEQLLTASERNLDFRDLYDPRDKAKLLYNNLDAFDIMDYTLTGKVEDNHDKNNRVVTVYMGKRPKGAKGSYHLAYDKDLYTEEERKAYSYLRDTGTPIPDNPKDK

Streptococcus = test: GAS UMAA2166 growth inhibition – luminescence, BacTiterGlo, counter-screen for streptokinase expression inhibitor project, dose response (AID 1915); assay type: functional, organism-based;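 note: potency for reduction of bacterial viability or growth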
[3] = tested on: Streptococcus sp. 'group A'; test: Streptococcus pyogenes SK(-)GAS viability under kanamycin – luminescence, BacTiterGlo, confirmation, counter-screen for streptokinase expression inhibitor project, dose response (AID 1900); assay type: functional, organism-based
[4] = biological target: T2, Heat shock factor protein 1 (Mus musculus, UniProt P38532); test: decrease of HSF1-responsive luciferase luminescence – cell-based, NIH3T3, dose retest, confirmation (AID 2382); assay type: functional;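 note: NIH3T3 fibroblasts with HSF1-driven luciferase reporter stressed by proteasome inhibitor MG132; luminescence from HSF1-driven luciferase expression after 8 hours of MG132 stress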
T2 sequence (P38532 whole entry): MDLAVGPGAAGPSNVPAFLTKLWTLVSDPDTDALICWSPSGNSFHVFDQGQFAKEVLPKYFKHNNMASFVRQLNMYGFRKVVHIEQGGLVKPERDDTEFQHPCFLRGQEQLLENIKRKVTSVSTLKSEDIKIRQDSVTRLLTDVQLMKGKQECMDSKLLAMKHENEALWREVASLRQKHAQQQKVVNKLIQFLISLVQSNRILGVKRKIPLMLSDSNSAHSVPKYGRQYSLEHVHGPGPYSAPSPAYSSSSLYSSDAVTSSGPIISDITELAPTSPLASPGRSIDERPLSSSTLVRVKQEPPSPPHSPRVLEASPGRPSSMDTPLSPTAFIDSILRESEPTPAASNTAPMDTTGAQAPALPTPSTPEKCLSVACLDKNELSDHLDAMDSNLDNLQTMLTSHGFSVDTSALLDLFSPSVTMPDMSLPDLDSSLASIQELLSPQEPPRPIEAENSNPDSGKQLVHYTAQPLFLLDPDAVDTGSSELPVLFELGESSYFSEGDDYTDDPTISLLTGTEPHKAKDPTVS

[5] = Luminescence Cell-Based Dose Retest to Confirm Inhibitors of Cancer Stem Cells. [Related pubchem assays (depositor defined):AID2717, AID2721]; assay type: functional; conditions: Homo sapiens
[6] = biological target: T3, Rac GTPase-activating protein 1 (Homo sapiens, UniProt Q9H0H5); test: blockers of MgcRacGAP-driven Rac1 GTP hydrolysis – biochemical, ADP Hunter fluorescence, primary and confirmatory, confirmation (AID 624330); assay type: functional
T3 sequence (Q9H0H5 whole entry): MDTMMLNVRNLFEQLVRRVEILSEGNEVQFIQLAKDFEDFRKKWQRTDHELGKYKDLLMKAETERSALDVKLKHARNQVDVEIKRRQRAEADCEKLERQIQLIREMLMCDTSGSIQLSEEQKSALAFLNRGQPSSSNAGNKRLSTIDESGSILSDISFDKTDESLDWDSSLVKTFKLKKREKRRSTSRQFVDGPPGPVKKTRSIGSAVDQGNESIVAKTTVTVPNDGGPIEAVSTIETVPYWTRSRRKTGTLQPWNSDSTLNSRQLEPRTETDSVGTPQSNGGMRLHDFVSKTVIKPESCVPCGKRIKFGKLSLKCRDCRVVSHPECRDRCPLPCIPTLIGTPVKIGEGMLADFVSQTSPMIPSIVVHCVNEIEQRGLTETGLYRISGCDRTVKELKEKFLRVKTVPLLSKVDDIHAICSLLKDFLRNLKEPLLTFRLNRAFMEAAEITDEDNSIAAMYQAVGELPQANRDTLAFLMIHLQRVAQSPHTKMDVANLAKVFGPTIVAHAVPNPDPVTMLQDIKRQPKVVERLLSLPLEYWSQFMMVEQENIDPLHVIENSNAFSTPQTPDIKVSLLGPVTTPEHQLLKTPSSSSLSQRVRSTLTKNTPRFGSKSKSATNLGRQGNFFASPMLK

[7] = Luminescence Cell-Based Dose Confirmation HTS to Identify Inhibitors of Platelet Dense Granule Release. [Related pubchem assays: 1663 (Primary HTS), 1678 (Summary of Project)]; assay type: functional
[8] = biological target: Luciferin 4-monooxygenase (Photinus pyralis, UniProt P08659); test: inhibition of purified Photinus pyralis luciferase – biochemical, luminescence, dose response (AID 1891)
Sequence of Luciferin 4-monooxygenase (P08659 whole entry): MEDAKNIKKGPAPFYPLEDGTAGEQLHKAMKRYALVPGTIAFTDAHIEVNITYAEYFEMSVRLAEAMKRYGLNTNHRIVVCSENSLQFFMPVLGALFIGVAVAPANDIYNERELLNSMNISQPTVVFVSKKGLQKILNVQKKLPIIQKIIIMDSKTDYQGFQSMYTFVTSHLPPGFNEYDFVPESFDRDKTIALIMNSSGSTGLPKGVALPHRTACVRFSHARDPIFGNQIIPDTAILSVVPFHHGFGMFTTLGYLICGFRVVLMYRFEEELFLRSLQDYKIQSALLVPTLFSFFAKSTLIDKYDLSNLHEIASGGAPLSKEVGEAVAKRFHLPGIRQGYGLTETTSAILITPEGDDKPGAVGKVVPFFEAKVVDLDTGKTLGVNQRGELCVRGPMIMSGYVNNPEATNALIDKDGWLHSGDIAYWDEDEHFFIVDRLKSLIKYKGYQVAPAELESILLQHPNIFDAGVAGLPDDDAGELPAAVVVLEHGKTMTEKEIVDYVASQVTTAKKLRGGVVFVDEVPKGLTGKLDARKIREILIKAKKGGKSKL

Paired box protein Pax-8 = Paired box protein Pax-8 (Homo sapiens, UniProt Q06710); test: PAX8 transcriptional activity inhibition in RMG-I – RMG-I cells, luciferase, cherry-pick, dose response (AID 687027); assay type: functional, cell-based;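 note: luciferase reporter driven by Pax8 target thyroperoxidase promoter measured by SteadyGlo luminescence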
Sequence of Paired box protein Pax-8 (Q06710 whole entry): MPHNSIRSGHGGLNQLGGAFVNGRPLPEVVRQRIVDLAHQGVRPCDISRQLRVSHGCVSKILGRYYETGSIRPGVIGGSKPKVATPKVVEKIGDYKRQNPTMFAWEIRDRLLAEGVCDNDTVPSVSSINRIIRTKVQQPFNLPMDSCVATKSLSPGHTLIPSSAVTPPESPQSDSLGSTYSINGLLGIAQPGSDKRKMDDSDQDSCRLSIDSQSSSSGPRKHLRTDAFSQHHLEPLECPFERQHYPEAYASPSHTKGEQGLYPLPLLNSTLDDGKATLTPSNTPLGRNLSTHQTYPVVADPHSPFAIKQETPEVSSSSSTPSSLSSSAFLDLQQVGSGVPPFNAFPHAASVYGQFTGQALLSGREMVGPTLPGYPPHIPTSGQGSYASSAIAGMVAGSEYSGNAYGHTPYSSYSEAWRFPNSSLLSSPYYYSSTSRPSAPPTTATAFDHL

Cc1cc(C(=O)CSc2nc3ccccc3o2)c(C)n1C1CC1
EC50 [1]: 0.905 µM (active) | EC50 [2]: 35.7 µM (active)

O=C(c1cc2ccccc2oc1=O)N(c1ccc(Cl)cc1)C1C=CS(=O)(=O)C1 (configuration not stated)
EC50 (H4): > 120 µM (not active) | EC50 [1]: 36.3 µM (active) | EC50 [2]: 13.6 µM (active)

CCOC(=O)c1cnn(-c2nc3c(C)cccc3s2)c1C(F)(F)F
EC50 (Streptokinase A): 22.3 µM (active) | EC50 (Streptococcus): 16.6 µM (active) | EC50 [3]: 9.35 µM (active)

O=C(Nc1ccccc1)C1=C[C@@H](c2ccccc2)C[C@@H](OCc2ccc(CO)cc2)O1
EC50 (H4): 14.2 µM (active) | EC50 [1]: > 120 µM (not active) | EC50 [2]: 7.69 µM (active)

CCN(CC)c1ccc(-n2cc3c(=O)n(C)c(=O)n(C)c3c2)cc1
EC50 (Streptokinase A): > 150 µM (not active) | EC50 (Streptococcus): 39.3 µM (active) | EC50 [3]: 4.91 µM (active)

Sc1nnc(-c2cnccn2)n1-c1ccccc1
EC50 [4]: > 195 µM (not active)

O=C(Nc1ccc2c(c1)CCC2)c1cc(S(=O)(=O)Nc2ccc(F)cc2)c(Cl)cc1Cl
AC50 [5]: 4.35 µM (active) | EC50 (Streptokinase A): 3.26 µM (active) | EC50 (Streptococcus): 15.2 µM (active) | EC50 [3]: 3.5 µM (active)

O=C(Nc1ccc2c(c1)OCO2)C1CC(c2c(F)cccc2Cl)=NO1 (configuration not stated)
EC50 (H4): 13.6 µM (active) | EC50 [1]: 25.6 µM (active) | EC50 [2]: 3.83 µM (active)

O=C1c2ccccc2S(=O)(=O)c2cc(N3CCc4ccccc4C3)ccc21
EC50 (H4): 15.6 µM (active) | EC50 [1]: 16.3 µM (active) | EC50 [2]: 14 µM (active)

O=C(NCC(O)c1ccccc1)c1ccc(Cl)c(S(=O)(=O)N2CCCC2)c1 (configuration not stated)
EC50 [1]: 14.9 µM (active) | EC50 [2]: 37.8 µM (active)

Oc1ccc(-c2c(C3=CCCCC3)sc3ccccc23)cc1
EC50 (Streptokinase A): 55.7 µM (inconclusive) | EC50 (Streptococcus): 7.29 µM (active) | EC50 [3]: 2.48 µM (active)

O=C(CC1CCCCC1)NCc1ccccc1Cl
EC50 (H4): > 120 µM (not active) | EC50 [1]: 14.1 µM (active) | EC50 [2]: > 120 µM (not active)

CCCCCOc1ccc(CSc2n[nH]c(C)n2)cc1
EC50 (H4): 20.8 µM (active) | EC50 [1]: 14.5 µM (active) | EC50 [2]: 63 µM (active)

COc1ccc(N2CCN(C(CNC(=O)CC(C)(C)C)c3ccc4c(c3)OCO4)CC2)cc1 (configuration not stated)
IC50 [6]: 166 µM (active)

Nc1c(S(=O)(=O)c2cccs2)c2nc3ccccc3nc2n1/N=C/c1cccc(O)c1
AC50 [5]: 3.99 µM (active) | EC50 (Streptokinase A): > 150 µM (not active) | EC50 (Streptococcus): 7.29 µM (active) | EC50 [3]: 3.26 µM (active)

CCOC(=O)c1[nH]c2ccc(OC)cc2c1N=C(S)N1CCN(C(=O)OCC)CC1
EC50 [7]: > 112 µM (not active) | EC50 [8]: > 112 µM (not active)

CSc1nc(N)n2nc(-c3ccccc3)cc2n1
EC50 [7]: 5.68 µM (active) | EC50 [8]: 3.8 µM (active)

O=C(O)c1ccc(/C=N\Nc2ccccn2)cc1
EC50 [7]: 2.54 µM (active) | EC50 [8]: 3.56 µM (active)

COc1ccc(N(C(=O)c2ccc(F)cc2)C2=CC3CCC(C2)N3C)cc1 (configuration not stated)
EC50 [7]: > 112 µM (not active) | EC50 [8]: > 112 µM (not active)

O=C(O)CC1Sc2ccccc2NC1=O (configuration not stated)
EC50 [7]: > 112 µM (not active) | EC50 [8]: > 112 µM (not active)

CCN(CC)CCCNCC(=O)Nc1ccc2c(c1)CCC2
IC50 [6]: 117 µM (active)

COc1ccc(/C=N/Nc2nccnc2Cl)cc1
EC50 [7]: 1.15 µM (active) | EC50 [8]: 3.76 µM (active)

C[C@@H]1CCCCO[C@H](CN(C)Cc2ccc(C(F)(F)F)cc2)[C@H](C)CN([C@@H](C)CO)C(=O)c2cc(NS(=O)(=O)c3cccs3)ccc2O1
AC50 (Paired box protein Pax-8): 9.41 µM (active)

O=C(Nc1cccnc1)C1CCN(S(=O)(=O)c2cccs2)CC1
EC50 (H4): > 120 µM (not active) | EC50 [1]: > 120 µM (not active) | EC50 [2]: > 120 µM (not active)

Cc1ccc(C)c(CSC2=NCCN2S(=O)(=O)c2ccccc2)c1
EC50 (Streptokinase A): 17.3 µM (active) | EC50 (Streptococcus): > 150 µM (not active) | EC50 [3]: 21.7 µM (active)

S=C(c1ccc2c(c1)OCO2)N1CCCCC1
EC50 [7]: > 112 µM (not active) | EC50 [8]: > 112 µM (not active)

Nc1c(Cl)ncnc1NCCc1ccc(O)cc1
IC50 [6]: 99.1 µM (active)

Nc1ccc2nc(-c3ccccn3)[nH]c2c1
EC50 [4]: 23.2 µM (active)

COc1ccc(N2CCN(C(=O)Cc3ccc(-n4c(=O)[nH]c5ccccc5c4=O)cc3)CC2)cc1
EC50 [4]: > 195 µM (not active)

CCOC(=O)c1sc(NC(=O)CC(C)c2ccccc2)nc1C (configuration not stated)
EC50 [7]: > 112 µM (not active) | EC50 [8]: > 112 µM (not active)

Cc1cc(C)nc(NC2=NCCS2)n1
EC50 [7]: > 112 µM (not active) | EC50 [8]: > 112 µM (not active)

CN(C(=O)CSc1nncn1C)C1CCCN(Cc2ccccc2F)C1 (configuration not stated)
EC50 [7]: > 112 µM (not active) | EC50 [8]: > 112 µM (not active)

C[n+]1ccc(C=NNc2nc(Cl)c(C#N)c(Cl)c2Cl)cc1
EC50 (Streptokinase A): > 150 µM (not active) | EC50 (Streptococcus): > 150 µM (not active) | EC50 [3]: 33 µM (active)

C/C(=N\N=C(/N)SC1CC(=O)N(c2ccc(Cl)c(Cl)c2)C1=O)c1cccs1 (configuration not stated)
AC50 [5]: 3.86 µM (active) | EC50 (Streptokinase A): 7.44 µM (inconclusive) | EC50 (Streptococcus): 8.08 µM (active) | EC50 [3]: 2.88 µM (active)

FC(F)(F)c1cc(N2CCN(Cc3ccccc3)CC2)c2ccccc2n1
EC50 (Streptokinase A): > 150 µM (not active) | EC50 (Streptococcus): > 150 µM (not active) | EC50 [3]: > 150 µM (not active)

Cn1c(=O)c2c(SCC(=O)N3CCCc4ccccc43)nc(C3CC3)nc2n(C)c1=O
EC50 [4]: > 195 µM (not active)

O=C(NCc1ccccn1)C(=O)Nc1ccccc1
EC50 (H4): 13 µM (active) | EC50 [1]: 27.2 µM (active) | EC50 [2]: 46.3 µM (active)

COc1ccc(OC(C)C(=O)N2CCC(C)CC2)cc1 (configuration not stated)
EC50 [4]: > 195 µM (not active)

CNC(=O)c1cc(S(=O)(=O)N(C)C)ccc1Cl
EC50 [7]: > 112 µM (not active) | EC50 [8]: > 112 µM (not active)

CCOC(=O)C1=C(COC(=O)/C=C/c2ccc(O)c(OC)c2)NC(=O)NC1C (configuration not stated)
IC50 [6]: 59.4 µM (active)

COc1ccc(S(=O)(=O)NCC2CCCN(C(=O)C3CCCC3)C2)cc1 (configuration not stated)
EC50 [4]: > 195 µM (not active)

COc1ccc(NC(=O)C2CC2)cc1-n1cnnn1
EC50 [4]: > 195 µM (not active)
